Data on 20 molecules can be found in PubChem BioAssay AID256 (DTP/NCI, 2004).

The test system of this experiment is CD2F1 mice, L1210 leukemia ip, survival T/C. Put plainly: NCI In Vivo Anticancer Drug Screen. Data for tumor model L1210 Leukemia (intraperitoneal) in CD2F1 (CDF1) mice. Conditions: higher = longer survival. The essentials: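 Read-out first: treated-group measurement over vehicle-control measurement, expressed as a ratio. Animals bore a transplanted tumor line and were dosed with compound or vehicle.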

Setting [1] is: endpoint: mean survival time, dose: 100.0 mg/kg/injection, schedule: Q01DX009 (ip), vehicle: saline with Tween-80.
Where [2] appears, read: endpoint: mean survival time, dose: 200.0 mg/kg/injection, schedule: Q01DX009 (ip), vehicle: saline with Tween-80.
The mark [3] stands for this setting: endpoint: mean survival time, dose: 400.0 mg/kg/injection, schedule: Q01DX009 (ip), vehicle: saline with Tween-80.
The mark [4] stands for this setting: endpoint: mean survival time, dose: 50.0 mg/kg/injection, schedule: Q01DX009 (ip), vehicle: saline with Tween-80.
[5] abbreviates: endpoint: mean survival time, dose: 50.0 mg/kg/injection, schedule: Q01DX009 (ip), vehicle: Klucel (hydroxypropylcellulose) (HPC).
[6] abbreviates: endpoint: mean survival time, dose: 100.0 mg/kg/injection, schedule: Q01DX009 (ip), vehicle: Klucel (hydroxypropylcellulose) (HPC).
The mark [7] stands for this setting: endpoint: mean survival time, dose: 200.0 mg/kg/injection, schedule: Q01DX009 (ip), vehicle: Klucel (hydroxypropylcellulose) (HPC).

Values joined by “and” are separate entries in the source; they are usually repeats but may differ in a detail not shown here. Identical values can stand only once. Toxic doses and inconclusive results are not listed.

Turning to `c1ccc(C2=NN(c3ccccc3)C(c3ccccc3)C2NC2CCCCC2)cc1` (stereo unspecified), the T/C was 93 % of control (endpoint: mean survival time, dose: 100.0 mg/kg/injection, schedule: Q04DX003 (ip), vehicle: acetone); 92 % of control (endpoint: mean survival time, dose: 200.0 mg/kg/injection, schedule: Q04DX003 (ip), vehicle: acetone); 97 % of control (endpoint: mean survival time, dose: 400.0 mg/kg/injection, schedule: Q04DX003 (ip), vehicle: acetone).
`CCC1(O)C(=O)OCc2c1cc1n(c2=O)Cc2cc3cc(OC)c(OC)cc3nc2-1` (stereo unspecified): the T/C (endpoint: median survival time, dose: 6.25 mg/kg/injection, schedule: Q04DX002 (ip), vehicle: saline with Tween-80) is 103 % of control; the T/C (endpoint: median survival time, dose: 12.5 mg/kg/injection, schedule: Q04DX002 (ip), vehicle: saline with Tween-80) was 101 % of control; the T/C (endpoint: median survival time, dose: 25.0 mg/kg/injection, schedule: Q04DX002 (ip), vehicle: saline with Tween-80) was 103 % of control; the T/C (endpoint: median survival time, dose: 50.0 mg/kg/injection, schedule: Q04DX002 (ip), vehicle: saline with Tween-80) is 94 % of control.
Regarding `Cc1ccc2c(c1)CN(C13CC4CC(CC(C4)C1)C3)CO2`, the T/C reads like this: under setting [1], 96 % of control; under setting [2], 96 % of control; under setting [3], 97 % of control.
For the molecule `Nc1ncnc2c1ncn2C1OC2COP(=O)(O)OC2C1OCc1ccccc1` (stereo unspecified), the T/C is 103 % of control (endpoint: mean survival time, dose: 100.0 mg/kg/injection, schedule: Q01DX005 (ip), vehicle: saline) and 94 % of control (endpoint: mean survival time, dose: 200.0 mg/kg/injection, schedule: Q01DX005 (ip), vehicle: saline).
For the molecule `CC(=O)C1C(=O)OC2(C)C(=O)C3=COC(/C=C\C(C)=C/C(C)C)=CC3=CC12` (stereo unspecified), the T/C under setting [1] was 100 % of control; the T/C under setting [2] is 104 % of control; the T/C (endpoint: mean survival time, dose: 200.0 mg/kg/injection, schedule: Q04DX003 (ip), vehicle: saline with Tween-80) is 91 % of control; the T/C under setting [3] was 111 % of control; the T/C (endpoint: mean survival time, dose: 400.0 mg/kg/injection, schedule: Q04DX003 (ip), vehicle: saline with Tween-80) was 88 % of control.
Consider `CC1(C)C(C#N)C(=O)N(Cc2ccccc2)C(=O)C1C#N` (stereo unspecified), for which the T/C reads like this: under setting [4], 98 % of control; under setting [1], 107 % of control; under setting [2], 98 % of control.
Take `CCS(=O)(=O)OCCCNCCCOS(=O)(=O)CC`: the T/C by setting is: (endpoint: mean survival time, dose: 12.5 mg/kg/injection, schedule: Q01DX001 (ip), vehicle: saline) 103 % of control; (endpoint: mean survival time, dose: 25.0 mg/kg/injection, schedule: Q01DX001 (ip), vehicle: saline) 105 % of control; (endpoint: mean survival time, dose: 100.0 mg/kg/injection, schedule: Q01DX001 (ip), vehicle: saline) 160 % of control; (endpoint: mean survival time, dose: 200.0 mg/kg/injection, schedule: Q01DX001 (ip), vehicle: saline) 186 % of control.
`c1ccc(Nc2ccccc2)cc1` (tested in a mixture with another compound): under “endpoint: mean survival time, dose: 100.0 mg/kg/injection, schedule: Q04DX002 (ip), vehicle: saline”, the T/C is 95 % of control.
On to `CC(C)=C/C(C)=C(/C#N)C(=O)OC(C)C`, for which the T/C is 97 % of control (endpoint: mean survival time, dose: 75.0 mg/kg/injection, schedule: Q01DX001 (ip), vehicle: saline) and 97 % of control (endpoint: mean survival time, dose: 150.0 mg/kg/injection, schedule: Q01DX001 (ip), vehicle: saline).
For the molecule `Cc1ccc([N+](=O)[O-])cc1NC(=O)Nc1cc([N+](=O)[O-])ccc1F`, the T/C by setting is: under setting [5], 112 % of control; under setting [6], 101 % of control; under setting [7], 101 % of control.
Regarding `CCCCCCCC(=O)Nc1c(C)cccc1C`, the T/C runs as follows: under setting [1], 96 % of control; under setting [2], 88 % of control; under setting [3], 91 % of control.
Regarding `COc1ccc(C(C)O)cc1` (stereo unspecified), the T/C is 104 % of control (endpoint: mean survival time, dose: 100.0 mg/kg/injection, schedule: Q04DX002 (ip), vehicle: saline with Tween-80); 93 % of control (endpoint: mean survival time, dose: 200.0 mg/kg/injection, schedule: Q04DX002 (ip), vehicle: saline with Tween-80); 97 % of control (endpoint: mean survival time, dose: 400.0 mg/kg/injection, schedule: Q04DX002 (ip), vehicle: saline with Tween-80).
In the case of `COc1ccc(NC(=O)Nc2cc(C(F)(F)F)ccc2Cl)cc1`, the T/C by setting is: under setting [1], 90 % of control; under setting [2], 98 % of control; under setting [3], 86 % of control.
As for `Nc1ccn([C@@H](C=O)C[C@@H](C=O)CO)c(=O)n1`, the T/C is 107 % of control (endpoint: median survival time, dose: 25.0 mg/kg/injection, schedule: Q01DX009 (ip), vehicle: saline); 121 % of control and 112 % of control (endpoint: median survival time, dose: 50.0 mg/kg/injection, schedule: Q01DX009 (ip), vehicle: saline); 121 % of control and 124 % of control (endpoint: median survival time, dose: 100.0 mg/kg/injection, schedule: Q01DX009 (ip), vehicle: saline); 153 % of control and 161 % of control (endpoint: median survival time, dose: 400.0 mg/kg/injection, schedule: Q01DX009 (ip), vehicle: saline).
Regarding `O=P1(N(CCCl)CCCl)OCCC(c2ccccc2)N1Cl` (stereo unspecified), the T/C is, setting by setting: (endpoint: mean survival time, dose: 43.75 mg/kg/injection, schedule: Q01DX001 (ip), vehicle: distilled water + Tween-80) 106 % of control; (endpoint: mean survival time, dose: 87.5 mg/kg/injection, schedule: Q01DX001 (ip), vehicle: distilled water + Tween-80) 103 % of control; (endpoint: mean survival time, dose: 175.0 mg/kg/injection, schedule: Q01DX001 (ip), vehicle: distilled water + Tween-80) 106 % of control; (endpoint: mean survival time, dose: 350.0 mg/kg/injection, schedule: Q01DX001 (ip), vehicle: distilled water + Tween-80) 110 % of control.
Regarding `O=C(Nc1ccc(Nc2ccncc2)cc1)c1ccc(Nc2ccnc3ccccc23)cc1[N+](=O)[O-]`, the T/C is 98 % of control (endpoint: mean survival time, dose: 100.0 mg/kg/injection, schedule: Q01DX001 (ip), vehicle: saline with Tween-80); 96 % of control (endpoint: mean survival time, dose: 200.0 mg/kg/injection, schedule: Q01DX001 (ip), vehicle: saline with Tween-80); 95 % of control (endpoint: mean survival time, dose: 400.0 mg/kg/injection, schedule: Q01DX001 (ip), vehicle: saline with Tween-80).
In the case of `NC(=S)Nc1ccc(C23CCC(CC2)CC3)cc1`, the T/C under setting [4] was 101 % of control, the T/C under setting [1] was 101 % of control and the T/C under setting [2] was 109 % of control.
Regarding `CC[C@@]1(OP(=O)(O)O)C(=O)OCc2c1cc1n(c2=O)Cc2cc3ccccc3nc2-1`, the T/C was 111 % of control and 112 % of control (endpoint: median survival time, dose: 5.5 mg/kg/injection, schedule: Q04DX002 (ip), vehicle: water); 154 % of control (endpoint: median survival time, dose: 8.25 mg/kg/injection, schedule: Q04HX004 (iv), vehicle: water); 119 % of control and 104 % of control (endpoint: median survival time, dose: 11.0 mg/kg/injection, schedule: Q04DX002 (ip), vehicle: water); 158 % of control and 180 % of control (endpoint: median survival time, dose: 16.5 mg/kg/injection, schedule: Q04HX004 (iv), vehicle: water); 177 % of control and 221 % of control (endpoint: median survival time, dose: 33.0 mg/kg/injection, schedule: Q04HX004 (iv), vehicle: water); 158 % of control and 192 % of control (endpoint: median survival time, dose: 44.0 mg/kg/injection, schedule: Q04DX002 (ip), vehicle: water). The T/C (endpoint: median survival time, dose: 44.0 mg/kg/injection, schedule: Q04HX004 (iv), vehicle: water) is 207 % of control.
In the case of `CCCCOC(=O)c1ccc(NC(=O)Nc2cc([N+](=O)[O-])ccc2C)cc1`, the T/C is, setting by setting: under setting [5], 101 % of control; under setting [6], 89 % of control; under setting [7], 104 % of control.
For the molecule `CN(C)c1nc(F)nc2c1ncn2C1OC(CO)C(O)C1O` (stereo unspecified), the T/C is, setting by setting: (endpoint: mean survival time, dose: 75.0 mg/kg/injection, schedule: Q01DX001 (ip), vehicle: other) 100 % of control; (endpoint: mean survival time, dose: 150.0 mg/kg/injection, schedule: Q01DX001 (ip), vehicle: other) 109 % of control; (endpoint: mean survival time, dose: 300.0 mg/kg/injection, schedule: Q01DX001 (ip), vehicle: other) 109 % of control.
